Laboratory results: US20250312352A1, “GLP-1R MODULATING COMPOUNDS” (Gilead Sciences, Inc., priority 2021, published 2025)
pEC50: −log10 of the molar value.

molecular target: T1, GLP-1R (Homo sapiens, UniProt P43220); experiment: GLP-1R activation cAMP assay (Assay 1 or Assay 2); assay type: cell-based; details: cAMP increase in CHO cells stably expressing GLP-1R; compounds run on one of the two cAMP assays
T1 construct: host or cells: CHO cells
Summary of the method: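 EC50 values come from a sigmoidal fit of HTRF-detected cAMP rise versus log agonist concentration. GLP-1R-expressing CHO cells, equilibrated 1 h at 37 °C in HBSS with HEPES and BSA, received a 10-point compound dose series for 30 min before detection.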

T1 sequence (P43220 24-463): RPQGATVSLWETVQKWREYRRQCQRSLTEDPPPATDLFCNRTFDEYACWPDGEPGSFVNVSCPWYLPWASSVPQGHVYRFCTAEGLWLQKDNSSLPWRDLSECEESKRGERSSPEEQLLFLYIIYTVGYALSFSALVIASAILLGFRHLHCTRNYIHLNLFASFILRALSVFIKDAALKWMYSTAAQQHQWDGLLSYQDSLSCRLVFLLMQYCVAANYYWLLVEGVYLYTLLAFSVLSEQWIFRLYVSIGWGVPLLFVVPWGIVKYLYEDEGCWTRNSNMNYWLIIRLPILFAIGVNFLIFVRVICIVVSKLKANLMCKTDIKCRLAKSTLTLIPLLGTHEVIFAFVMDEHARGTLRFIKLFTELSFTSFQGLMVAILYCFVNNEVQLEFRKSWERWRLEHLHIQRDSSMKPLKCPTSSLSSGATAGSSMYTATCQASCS

Row | pEC50 | Compound
1 | 9.29 | O=C(O)c1ccc2nc(Cc3cc(F)c(-c4cccc(OCc5ccc(-n6cnc(C7CC7)n6)nc5)n4)cc3F)n(C[C@@H]3CCO3)c2c1 [Example 211, 2-[[4-[6-[[6-(3-cyclopropyl-1,2,4-triazol-1-yl)-3-pyridyl]methoxy]-2-pyridyl]-2,5-difluoro-phenyl]methyl]-3-[[(2S)-oxetan-2-yl]methyl]benzimidazole-5-carboxylic acid]
2 | 8.23 | COCCn1c(Cc2cc(F)c(-c3cccc(OCc4ccc(C#CC5CN(C)C5)cc4F)n3)cc2F)nc2ccc(C(=O)O)cc21 [Example 234, 2-[[2,5-difluoro-4-[6-[[2-fluoro-4-[2-(1-methylazetidin-3-yl)ethynyl]phenyl]methoxy]-2-pyridyl]phenyl]methyl]-3-(2-methoxyethyl)benzimidazole-5-carboxylic acid]
3 | 9.60 | O=C(O)c1ccc2nc(Cc3cc(F)c(-c4cccc(OCc5ncc(C#Cc6cncs6)cc5F)n4)cc3F)n(C[C@@H]3CCO3)c2c1 [Example 303, (S)-2-(2,5-difluoro-4-(6-((3-fluoro-5-(thiazol-5-ylethynyl)pyridin-2-yl)methoxy)pyridin-2-yl)benzyl)-1-(oxetan-2-ylmethyl)-1H-benzo[d]imidazole-6-carboxylic acid]
4 | 9.17 | O=C(O)c1ccc2nc(Cc3cc(F)c(-c4cccc(OCc5csc(Cl)n5)n4)cc3F)n(C[C@@H]3CCO3)c2c1 [Example 50, (S)-2-(4-(6-((2-chlorothiazol-4-yl)methoxy)pyridin-2-yl)-2,5-difluorobenzyl)-1-(oxetan-2-ylmethyl)-1H-benzo[d]imidazole-6-carboxylic acid]
5 | 9.24 | Cc1cc(Cc2nc3ccc(C(=O)O)cc3n2C[C@@H]2CCO2)c(F)cc1-c1cccc(OCc2ncc(-c3cnn(C(F)F)c3)s2)n1 [Example 331, (S)-2-(4-(6-((5-(1-(difluoromethyl)-1H-pyrazol-4-yl)thiazol-2-yl)methoxy)pyridin-2-yl)-2-fluoro-5-methylbenzyl)-1-(oxetan-2-ylmethyl)-1H-benzo[d]imidazole-6-carboxylic acid]
6 | 9.81 | Cc1nnc(COc2cccc(-c3cc(F)c(Cc4nc5ccc(C(=O)O)cc5n4[C@@H]4COCC4(C)C)cc3F)n2)s1 [Example 290, (S)-2-(2,5-difluoro-4-(6-((5-methyl-1,3,4-thiadiazol-2-yl)methoxy)pyridin-2-yl)benzyl)-1-(4,4-dimethyltetrahydrofuran-3-yl)-1H-benzo[d]imidazole-6-carboxylic acid]
7 | 9.26 | COc1nnc(COc2nc(-c3cc(F)c(Cc4nc5c(F)cc(C(=O)O)cc5n4CC4(CF)CC4)cc3F)ccc2F)s1 [Example 410, 2-(2,5-difluoro-4-(5-fluoro-6-((5-methoxy-1,3,4-thiadiazol-2-yl)methoxy)pyridin-2-yl)benzyl)-4-fluoro-1-((1-(fluoromethyl)cyclopropyl)methyl)-1H-benzo[d]imidazole-6-carboxylic acid]
8 | 10.12 | CC1(C)COC[C@H]1n1c(Cc2cc(F)c(-c3ccc(F)c(OCc4ncc(C(F)(F)F)s4)n3)cc2F)nc2c(F)cc(C(=O)O)cc21 [Example 252, 2-[[2,5-difluoro-4-[5-fluoro-6-[[5-(trifluoromethyl)thiazol-2-yl]methoxy]-2-pyridyl]phenyl]methyl]-3-[(3S)-4,4-dimethyltetrahydrofuran-3-yl]-7-fluoro-benzimidazole-5-carboxylic acid]
9 | 9.05 | COc1nnc(COc2cccc(-c3cc(F)c(Cc4nc5ccc(C(=O)O)cc5n4CC4(CF)CC4)c(F)c3F)n2)s1 [Example 271, 1-((1-(fluoromethyl)cyclopropyl)methyl)-2-(2,3,6-trifluoro-4-(6-((5-methoxy-1,3,4-thiadiazol-2-yl)methoxy)pyridin-2-yl)benzyl)-1H-benzo[d]imidazole-6-carboxylic acid]
10 | 9.43 | COc1nnc(COc2cccc(-c3cc(F)c(Cc4nc5c(F)cc(C(=O)O)cc5n4CC4(C(F)F)CC4)cc3F)n2)s1 [Example 275, 2-(2,5-difluoro-4-(6-((5-methoxy-1,3,4-thiadiazol-2-yl)methoxy)pyridin-2-yl)benzyl)-1-((1-(difluoromethyl)cyclopropyl)methyl)-4-fluoro-1H-benzo[d]imidazole-6-carboxylic acid]
11 | 9.21 | CNC(=O)c1cc(Cl)c(COc2cccc(-c3cc(F)c(Cc4nc5ccc(C(=O)O)cc5n4CC4(CF)CC4)c(F)c3F)c2)cn1 [Example 451, 2-((3′-((4-chloro-6-(methylcarbamoyl)pyridin-3-yl)methoxy)-2,3,5-trifluoro-[1,1′-biphenyl]-4-yl)methyl)-1-((1-(fluoromethyl)cyclopropyl)methyl)-1H-benzo[d]imidazole-6-carboxylic acid]
12 | 8.95 | CO[C@H](C)Cn1c(Cc2cc(F)c(-c3cccc(OCc4ncc(-c5cnn(C)c5)s4)n3)cc2F)nc2ccc(C(=O)O)cc21 [Example 224, 2-[[2,5-difluoro-4-[6-[[5-(1-methylpyrazol-4-yl)thiazol-2-yl]methoxy]-2-pyridyl]phenyl]methyl]-3-[(2R)-2-methoxypropyl]benzimidazole-5-carboxylic acid]
13 | 9.44 | Cc1cc(Cc2nc3c(F)cc(C(=O)O)cc3n2[C@@H]2COCC2(C)C)c(F)cc1-c1ccc(F)c(OCc2ncc(C(F)(F)F)s2)n1 [Example 436, (S)-1-(4,4-dimethyltetrahydrofuran-3-yl)-4-fluoro-2-(2-fluoro-4-(5-fluoro-6-((5-(trifluoromethyl)thiazol-2-yl)methoxy)pyridin-2-yl)-5-methylbenzyl)-1H-benzo[d]imidazole-6-carboxylic acid]
14 | 9.40 | CC1(C)COC[C@H]1n1c(Cc2cc(F)c(-c3ccnc(OCc4sc(C#N)cc4F)n3)cc2F)nc2ccc(C(=O)O)cc21 [Example 267, 2-[[4-[2-[(5-cyano-3-fluoro-2-thienyl)methoxy]pyrimidin-4-yl]-2,5-difluoro-phenyl]methyl]-3-[(3S)-4,4-dimethyltetrahydrofuran-3-yl]benzimidazole-5-carboxylic acid]
15 | 7.63 | Cn1cncc1COc1cccc(-c2cc(F)c(Cc3nc4ccc(C(=O)O)cc4n3C[C@@H]3CCO3)cc2F)n1 [Example 178, (S)-2-(2,5-difluoro-4-(6-((1-methyl-1H-imidazol-5-yl)methoxy)pyridin-2-yl)benzyl)-1-(oxetan-2-ylmethyl)-1H-benzo[d]imidazole-6-carboxylic acid]
16 | 9.28 | COc1cc(C#Cc2cnn(C)c2)ccc1COc1cccc(-c2cc(F)c(Cc3nc4ccc(C(=O)O)cc4n3C[C@@H]3CCO3)cc2F)n1 [Example 304, (S)-2-(2,5-difluoro-4-(6-((2-methoxy-4-((1-methyl-1H-pyrazol-4-yl)ethynyl)benzyl)oxy)pyridin-2-yl)benzyl)-1-(oxetan-2-ylmethyl)-1H-benzo[d]imidazole-6-carboxylic acid]
17 | 10.17 | COc1nnc(COc2cccc(-c3cc(F)c(Cc4nc5c(F)cc(C(=O)O)cc5n4CC4(CF)CC4)c(F)c3F)n2)s1 [Example 280, 4-fluoro-1-((1-(fluoromethyl)cyclopropyl)methyl)-2-(2,3,6-trifluoro-4-(6-((5-methoxy-1,3,4-thiadiazol-2-yl)methoxy)pyridin-2-yl)benzyl)-1H-benzo[d]imidazole-6-carboxylic acid]
18 | 9.49 | CCOc1nc(C)c(COc2cccc(-c3cc(F)c(Cc4nc5ccc(C(=O)O)cc5n4C[C@@H]4CCO4)cc3F)n2)s1 [Example 349, (S)-2-(4-(6-((2-ethoxy-4-methylthiazol-5-yl)methoxy)pyridin-2-yl)-2,5-difluorobenzyl)-1-(oxetan-2-ylmethyl)-1H-benzo[d]imidazole-6-carboxylic acid]
19 | 9.57 | COc1nnc(COc2cccc(-c3cc(F)c(Cc4nc5ccc(C(=O)O)cc5n4C[C@@H]4CCO4)cc3F)n2)s1 [Example 1, 2-[[2,5-difluoro-4-[6-[(5-methoxy-1,3,4-thiadiazol-2-yl)methoxy]-2-pyridyl]phenyl]methyl]-3-[[(2S)-oxetan-2-yl]methyl]benzimidazole-5-carboxylic acid]
20 | 9.70 | N#CC1(NC(=O)c2cc(Cl)c(COc3cccc(-c4cc(F)c(Cc5nc6c(F)cc(C(=O)O)cc6n5C[C@@H]5CCO5)cc4F)n3)cn2)CCC1 [Example 190, (S)-2-(4-(6-((4-chloro-6-((1-cyanocyclobutyl)carbamoyl)pyridin-3-yl)methoxy)pyridin-2-yl)-2,5-difluorobenzyl)-4-fluoro-1-(oxetan-2-ylmethyl)-1H-benzo[d]imidazole-6-carboxylic acid]
21 | 9.69 | Cn1cc(C#Cc2cnc(COc3cccc(-c4cc(F)c(Cc5nc6c(F)cc(C(=O)O)cc6n5C[C@@H]5CCO5)cc4F)n3)c(F)c2)cn1 [Example 392, (S)-2-(2,5-difluoro-4-(6-((3-fluoro-5-((1-methyl-1H-pyrazol-4-yl)ethynyl)pyridin-2-yl)methoxy)pyridin-2-yl)benzyl)-4-fluoro-1-(oxetan-2-ylmethyl)-1H-benzo[d]imidazole-6-carboxylic acid]
22 | 9.51 | O=C(O)c1ccc2nc(Cc3cc(F)c(-c4cccc(OCc5ncc(-c6ccccn6)s5)n4)cc3F)n(C[C@@H]3CCO3)c2c1 [Example 107, (S)-2-(2,5-difluoro-4-(6-((5-(pyridin-2-yl)thiazol-2-yl)methoxy)pyridin-2-yl)benzyl)-1-(oxetan-2-ylmethyl)-1H-benzo[d]imidazole-6-carboxylic acid]
23 | 9.23 | O=C(O)c1ccc2nc(Cc3cc(F)c(-c4cccc(OCc5nnc(C6CC6)s5)n4)cc3F)n(C[C@@H]3CCO3)c2c1 [Example 307, (S)-2-(4-(6-((5-cyclopropyl-1,3,4-thiadiazol-2-yl)methoxy)pyridin-2-yl)-2,5-difluorobenzyl)-1-(oxetan-2-ylmethyl)-1H-benzo[d]imidazole-6-carboxylic acid]
24 | 9.09 | Cc1cc(COc2cccc(-c3cc(F)c(Cc4nc5ccc(C(=O)O)cc5n4C[C@@H]4CCO4)cc3F)n2)nn1C [Example 72, (S)-2-(4-(6-((1,5-dimethyl-1H-pyrazol-3-yl)methoxy)pyridin-2-yl)-2,5-difluorobenzyl)-1-(oxetan-2-ylmethyl)-1H-benzo[d]imidazole-6-carboxylic acid]
